Data as given in patent US11702419B2, “Heterocyclic compound and use thereof” (Takeda Pharmaceutical Company Limited, priority 2018, dated 2023).

Experiments:
[1] = molecular target: T1, hERG channel (Homo sapiens, UniProt Q12809); assay: hERG manual patch-clamp assay; type: cell-based; conditions: 10 μmol/L test solution; hERG peak tail current 3 to 5 min after application, HEK293 cells
T1 construct: Medicine
Description: hERG Manual Patch-Clamp Assay
In order to confirm “hERG channel inhibitory activity” which the compound of the present invention has, the hERG channel inhibitory activity was evaluated using human Ether-a-go-go-Related Gene (hERG)-expressing human embryonic kidney 293 (HEK293) cells.
hERG-stably expressing HEK293 cells were purchased from University of Wisconsin-Madison Dept. Medicine. The cells were cultured in a medium prepared by adding 10% FBS (fetal bovine serum, Life Technologies Corporation), sodium pyruvate (1 mmol/L; Life Technologies Corporation), MEM Non-Essential Amino Acid (1×; Life Technologies Corporation), 100 units/mL penicillin, 100 μg/mL streptomycin (Life Technologies Corporation) and 400 μg/mL G 418 (Geneticin, Sigma-Aldrich Co. LLC.) to Minimum Essential Medium (Sigma-Aldrich Co. LLC.) at 37° C., 5% CO2. The cultured cells were detached, suspended in a medium, and seeded on a cover glass, cultured, and used in a patch-clamp assay. […]
The hERG current passing through whole cell membranes under voltage-clamp was recorded by whole-cell patch-clamp method. […] During measurement, the extracellular fluid temperature in the chamber was set at 20 to 25° C., and the hERG current was measured using patch-clamp amplifier (Axopatch-200B, Molecular Devices, LLC). The obtained electrical signal was recorded on a computer via patch-clamp record and analysis software (pCLAMP 10, Molecular Devices, LLC). The absolute value of the hERG current value (peak tail current) was calculated based on the current value when depolarizing pulse at −50 mV, 110 msec was given, and the change (inhibitory rate) in the hERG current value (peak tail current) 3 to 5 min after the application of the 10 μmol/L test solution relative to before the application was calculated.

[2] = tested on: NMDA receptor containing the NR2B subunit (hippocampus); assay: [3H]MK-801 binding test in vivo; parameters: species or system Sprague Dawley rats; conditions: [3H]MK-801 binding inhibitory rate, rat hippocampus
Description: [^3H]MK-801 Binding Test In Vivo
In order to confirm “functional antagonistic action on an NMDA receptor containing the NR2B subunit in vivo” which the compound of the present invention has, binding test was performed using tritium-labeled form of MK-801 ((5R,10S)-5-methyl-10,11-dihydro-5H-5,10-epiminodibenzo[a,d][7]annulene) ([^3H]MK-801), which is a compound capable of binding to the opening site of the NMDA receptor.
The example compound (3 mg/kg/2 mL, 0.5% MC water) or vehicle ([…], 0.5% MC water) was orally administered (p.o.) to Sprague Dawley rats (body weight 180-260 g). After a certain time (around after time-to maximum blood concentration), [^3H]MK-801 (20 μCi/kg/mL, Muromachi Kikai) was intravenously administered. After 10 min, the rats were euthanized by decapitation, and subjected to craniotomy, and the hippocampus was collected. The collected hippocampus was homogenized in 30 volumes (30 mL per 1 g tissue) ice-cooled 20 mM Hepes (pH7.5, Hampton Research) using a homogenizer (T10 basic Ultra-Turrax) for 10 sec. […] The filter was washed four times with ice-cooled saline (5 mL, Otsuka Pharmaceutical), put into a scintillation vial, and then 10 mL of liquid scintillator A (FUJIFILM Wako Pure Chemical Corporation) was added thereto, and the residual radioactivity was counted using liquid scintillation counter (ALOKA LSC-6100). Separately, the residual radioactivity in 100 μL of the homogenate before the filtration was counted in the same way. The value of [the residual radioactivity in the filter/the residual radioactivity in the 100 μL of the homogenate] was calculated as a [^3H]MK-801 binding rate to the NMDA receptor expressing in each individual hippocampus tissue. […] The difference between the percentage of [^3H]MK-801 binding rate in the group orally administered with the example compound and that in the vehicle control group (100%) was analyzed as [^3H]MK-801 binding inhibitory rate by the example compound.

[3] = molecular target: T2, NMDA receptor composed of four subunits consisting of two sets of heterodimers of NR1 and NR2B (human GRIN1 and GRIN2B-expressing HEK293 cells) (Homo sapiens, UniProt Q13224); assay: NR2B Ca2+ influx assay; type: cell-based; conditions: 10 μM compound, glutamic acid/glycine-induced Ca2+ influx, FLIPR, read-out: inhibitory rate (10 μM compound concentration)
T2 construct: host or cells: HEK293 (tetracycline-inducible expression)
In short: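 HEK293 cells expressing human GRIN1/GRIN2B were induced with tetracycline (diluted to 2 µg/mL) for 2 h, then Fluo-4AM loaded (2.5 µM) in pH 7.2 buffer with 1.8 mM CaCl2. Compound at 10 µM final was preincubated 15 min at room temperature, then challenged with buffer containing 30 µM glutamate/30 µM glycine. FLIPR fluorescence was read every 3 s for 5 min, with % inhibition from cumulative signal and agonist-free wells set as 100%.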

[4] = single intravenous administration; major depression and bipolar disorder; cited from earlier work
[5] = continuous intravenous administration; cited from earlier work
[6] = rodents; number of occurrence and depth; cited from earlier work
[7] = in vivo; cited from earlier work
[8] = in vivo; cited from earlier work; remark: listed apart in the source

T2 sequence (Q13224 27-1484, other chains not shown): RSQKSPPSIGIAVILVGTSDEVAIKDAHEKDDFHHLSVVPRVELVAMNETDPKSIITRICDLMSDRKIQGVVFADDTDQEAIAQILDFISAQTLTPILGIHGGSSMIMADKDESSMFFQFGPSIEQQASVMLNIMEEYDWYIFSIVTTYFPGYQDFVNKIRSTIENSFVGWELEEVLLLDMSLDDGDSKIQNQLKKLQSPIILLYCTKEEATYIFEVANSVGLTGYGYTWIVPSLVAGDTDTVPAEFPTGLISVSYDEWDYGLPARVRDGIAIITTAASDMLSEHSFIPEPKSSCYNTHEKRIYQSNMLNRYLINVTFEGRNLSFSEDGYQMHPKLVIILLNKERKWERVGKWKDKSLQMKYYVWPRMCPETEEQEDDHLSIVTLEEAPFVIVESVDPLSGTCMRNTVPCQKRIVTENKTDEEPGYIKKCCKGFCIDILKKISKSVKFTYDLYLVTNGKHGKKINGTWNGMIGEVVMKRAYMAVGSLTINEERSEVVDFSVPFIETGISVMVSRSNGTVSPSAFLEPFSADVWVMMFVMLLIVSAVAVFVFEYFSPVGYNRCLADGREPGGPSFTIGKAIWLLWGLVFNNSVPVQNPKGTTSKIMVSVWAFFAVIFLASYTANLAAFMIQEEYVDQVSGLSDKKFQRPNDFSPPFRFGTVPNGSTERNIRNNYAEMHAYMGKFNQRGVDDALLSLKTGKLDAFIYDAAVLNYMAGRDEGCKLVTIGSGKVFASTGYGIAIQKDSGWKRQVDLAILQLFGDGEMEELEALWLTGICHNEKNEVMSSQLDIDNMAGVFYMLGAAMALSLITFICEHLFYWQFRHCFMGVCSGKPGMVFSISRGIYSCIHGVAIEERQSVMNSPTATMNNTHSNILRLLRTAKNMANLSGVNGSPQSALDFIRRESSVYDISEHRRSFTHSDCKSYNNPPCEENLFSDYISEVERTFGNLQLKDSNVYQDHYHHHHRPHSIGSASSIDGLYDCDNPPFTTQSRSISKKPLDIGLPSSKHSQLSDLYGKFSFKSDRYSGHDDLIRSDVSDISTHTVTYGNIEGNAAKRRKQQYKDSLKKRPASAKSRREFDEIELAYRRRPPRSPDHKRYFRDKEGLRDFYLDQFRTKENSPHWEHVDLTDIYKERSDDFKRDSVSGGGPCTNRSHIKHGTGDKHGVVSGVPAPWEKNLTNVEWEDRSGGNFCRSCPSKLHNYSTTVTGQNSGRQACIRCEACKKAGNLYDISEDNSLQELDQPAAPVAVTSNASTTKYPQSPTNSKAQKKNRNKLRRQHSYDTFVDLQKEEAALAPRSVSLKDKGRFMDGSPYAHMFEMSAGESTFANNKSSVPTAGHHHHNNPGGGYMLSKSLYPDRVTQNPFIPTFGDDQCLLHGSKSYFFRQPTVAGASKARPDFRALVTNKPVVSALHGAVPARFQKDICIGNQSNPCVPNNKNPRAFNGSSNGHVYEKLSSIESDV
T1 sequence (Q12809 whole entry): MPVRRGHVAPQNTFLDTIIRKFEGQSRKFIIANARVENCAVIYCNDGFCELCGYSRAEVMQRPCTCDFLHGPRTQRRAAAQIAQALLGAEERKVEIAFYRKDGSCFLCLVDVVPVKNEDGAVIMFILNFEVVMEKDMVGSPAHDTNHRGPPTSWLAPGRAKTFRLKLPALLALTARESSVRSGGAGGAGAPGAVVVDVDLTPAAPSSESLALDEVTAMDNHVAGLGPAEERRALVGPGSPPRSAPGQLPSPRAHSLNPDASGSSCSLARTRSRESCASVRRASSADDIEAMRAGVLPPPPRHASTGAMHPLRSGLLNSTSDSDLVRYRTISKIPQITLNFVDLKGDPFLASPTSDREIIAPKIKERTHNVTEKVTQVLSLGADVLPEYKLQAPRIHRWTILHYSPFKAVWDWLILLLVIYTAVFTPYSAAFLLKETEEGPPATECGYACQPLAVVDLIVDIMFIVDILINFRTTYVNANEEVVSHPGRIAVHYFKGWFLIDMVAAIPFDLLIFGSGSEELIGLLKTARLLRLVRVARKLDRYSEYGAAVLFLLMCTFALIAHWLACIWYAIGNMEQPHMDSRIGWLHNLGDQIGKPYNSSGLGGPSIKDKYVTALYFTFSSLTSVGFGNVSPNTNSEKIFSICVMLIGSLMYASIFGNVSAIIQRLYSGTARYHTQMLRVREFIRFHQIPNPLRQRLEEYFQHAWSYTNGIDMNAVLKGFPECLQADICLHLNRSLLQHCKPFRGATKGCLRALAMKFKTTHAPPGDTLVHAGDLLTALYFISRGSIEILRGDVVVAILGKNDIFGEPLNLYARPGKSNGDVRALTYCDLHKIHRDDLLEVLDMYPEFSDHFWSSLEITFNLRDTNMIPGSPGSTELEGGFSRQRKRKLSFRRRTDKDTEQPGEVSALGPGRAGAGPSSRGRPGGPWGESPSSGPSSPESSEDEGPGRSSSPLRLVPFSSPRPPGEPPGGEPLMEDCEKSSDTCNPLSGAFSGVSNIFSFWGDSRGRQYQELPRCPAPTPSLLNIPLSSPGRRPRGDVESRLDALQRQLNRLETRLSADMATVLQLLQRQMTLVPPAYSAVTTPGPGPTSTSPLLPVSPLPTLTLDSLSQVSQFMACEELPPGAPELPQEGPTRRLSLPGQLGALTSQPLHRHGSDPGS

In the case of Cn1ccn2ncc(CNC(=O)c3cnc(OC(F)F)c(F)c3)c12 [Example 58, 6-(difluoromethoxy)-5-fluoro-N-((1-methyl-1H-imidazo[1,2-b]pyrazol-7-yl)methyl)nicotinamide], the “inhibitory rate (10 μM compound concentration)” value [1] was 13.6, the “inhibitory rate (3 mg/kg, p.o.)” value [2] was 27% and the inhibition at 10 µM [3] was 97%.
For CNC1(c2ccccc2Cl)CCCCC1=O (stereo not drawn) [ketamine], the “effect on depression symptom” value [4] is listed as “improves depression symptom accompanying major depression and bipolar disorder rapidly and in a sustained manner”.
In the case of C[C@@H]([C@@H](O)c1ccc(O)cc1)N1CCC(O)(c2ccccc2)CC1 [CP-101,606], the “effect on treatment resistant-depression symptom” value [5] is listed as “significantly improves treatment resistant-depression symptom” and the “effect on cortical spreading depression” value [6] is listed as “suppress the number of occurrence and the depth of cortical spreading depression”.
With O=C(NCc1nnn2ccccc12)c1ccc(OC(F)(F)F)c(F)c1 [Example 13, 3-fluoro-N-([1,2,3]triazolo[1,5-a]pyridin-3-ylmethyl)-4-(trifluoromethoxy)benzamide] the “inhibitory rate (10 μM compound concentration)” value [1] was 33.2, the “inhibitory rate (3 mg/kg, p.o.)” value [2] was 23% and the inhibition at 10 µM [3] was 96%.
For CC(C(O)c1ccc(O)cc1)N1CCC(Cc2ccccc2)CC1 (stereo not drawn) [ifenprodil], the “effect on pain threshold” value [7] is given as “increase in pain threshold”.
In the case of O=C(NCc1cnn2ncccc12)c1cnc(OC(F)F)c(F)c1 [Example 6, 6-(difluoromethoxy)-5-fluoro-N-(pyrazolo[1,5-b]pyridazin-3-ylmethyl)nicotinamide], the “inhibitory rate (10 μM compound concentration)” value [1] was 16.5, the “inhibitory rate (3 mg/kg, p.o.)” value [2] was 33% and the inhibition at 10 µM [3] was 97%.
For C[C@@H](CN1CCC(Cc2ccccc2)CC1)[C@@H](O)c1ccc(O)cc1 [Ro25-6981], the “effect on cortical spreading depression” value [6] is given as “suppress the number of occurrence and the depth of cortical spreading depression”.
In the case of CC12CC3CC(C)(C1)CC(N)(C3)C2 [memantine], the “effect on behavioral and psychological symptoms of dementia” value [8] is listed as “partially improves behavioral and psychological symptoms of dementia”.
